{"source": "patent US6930075B1", "about": "“Fatty acid-based herbicidal composition” (priority 1990, dated 2005)", "assay_in_all_cases": "Greenhouse post-emergence spray, plant damage rating", "type_in_all_cases": "in vivo", "key": {"[1]": {"system": "Avena sativa (oats)", "details": "A. sativa, alone and combined", "experimental": "(§1) Three species of weed, used in each test: Hypochoeris radicata (false dandelion), Sinapis, arvensis (wild mustard), and Avena sativa (oats), were grown in a greenhouse facility in 5.5 cm square pots using a potting soil mix comprising peat, vermiculite, sand, and 4-10-10 fertilizer. Water-soluble 20-20-20 fertilizer was used as a supplement for the plants as required. The plants were selected for use based on uniformity and quality and were potted separately. One plant per pot each of H. radicata (6–10 leaves) and S. arvensis (4–6 leaves) were used. Six to eight plants of A. sativa (2–4 leaves) were used per pot. After spraying with a herbicidal composition (as described below) the pots were arranged in a randomized complete block design in sub-irrigated watering trays. Six to ten replicates (pots) were used per treatment.\n(§2) Herbicidal treatments were applied using a spray chamber fitted with a TeeJet 8006E flat fan nozzle (available from Spraying Systems Co., Wheaton, Ill.), calibrated to spray at a volume of 60 gpa at 40 psi. Treatment solutions were freshly prepared for each experiment. Plant damage was assessed at 10 to 14 days after treatment using a pre-transformed 0–10 rating scale (0 representing no damage, 10 representing plant death) in accordance with the procedure outlined in Statistical Methods in Agricultural Research, Little, T. M. et al, J. Wiley and Sons, 1975, pp. 119–120, 218."}, "[2]": {"system": "Hypochoeris radicata (false dandelion)", "details": "H. radicata, alone and combined", "experimental": "as §1, §2"}, "[3]": {"system": "Sinapis arvensis (wild mustard)", "details": "S. arvensis, alone and combined", "experimental": "as §1, §2"}, "[4]": {"details": "Table 3 set 1: Round-Up 0.1%, Potassium pelargonate 0.1%"}, "[5]": {"details": "Table 3 set 2: Round-Up 0.1%, Potassium pelargonate 0.5%"}, "[6]": {"details": "Table 3 set 3: Round-Up 0.1%, Potassium pelargonate 0.5% (so in the source)"}}, "data": [{"molecule": "CCCCCCCCC(=O)[O-].[K+]", "note": "[Potassium pelargonate]", "values": [{"measurement": "Phytotoxicity (%) Observed", "setting": "[1]; [4]", "value": 6, "unit": "%"}, {"measurement": "Phytotoxicity (%) Observed", "setting": "[1]; [5]", "value": 5, "unit": "%"}, {"measurement": "Phytotoxicity (%) Observed", "setting": "[1]; [6]", "value": 7, "unit": "%"}, {"measurement": "Phytotoxicity (%) Observed", "setting": "[2]; [4]", "value": 0, "unit": "%"}, {"measurement": "Phytotoxicity (%) Observed", "setting": "[2]; [5]", "value": 0, "unit": "%"}, {"measurement": "Phytotoxicity (%) Observed", "setting": "[2]; [6]", "value": 3, "unit": "%"}, {"measurement": "Phytotoxicity (%) Observed", "setting": "[3]; [4]", "value": 0, "unit": "%"}, {"measurement": "Phytotoxicity (%) Observed", "setting": "[3]; [5]", "value": 0, "unit": "%"}, {"measurement": "Phytotoxicity (%) Observed", "setting": "[3]; [6]", "value": 2, "unit": "%"}]}]}
